Where a SMILES comes first, the peptide text is derived from it.
What was measured:
EcPBP3 [1] = biological target: T1, EcPBP3 (Escherichia coli, UniProt P0AD68); experiment: Fluorescence polarisation competition assay with fluorescent Bicycle tracer (tracer 1 / BCY12820); assay type: binding; conditions: protein 9.4 nM sets sensitivity limit, top concentration 5 µM, read-out: Ki (nM) by fluorescence polarisation with tracer 1 (BCY12820 as tracer), Geometric mean (Lower 95% CI; Upper 95% CI, n=number of values)
T1 construct: For assays, selections and SPR a construct with residues 60–588 which has the N-terminal domain, but not the transmembrane helix, was used; made in house
T1 sequence (P0AD68 60-588): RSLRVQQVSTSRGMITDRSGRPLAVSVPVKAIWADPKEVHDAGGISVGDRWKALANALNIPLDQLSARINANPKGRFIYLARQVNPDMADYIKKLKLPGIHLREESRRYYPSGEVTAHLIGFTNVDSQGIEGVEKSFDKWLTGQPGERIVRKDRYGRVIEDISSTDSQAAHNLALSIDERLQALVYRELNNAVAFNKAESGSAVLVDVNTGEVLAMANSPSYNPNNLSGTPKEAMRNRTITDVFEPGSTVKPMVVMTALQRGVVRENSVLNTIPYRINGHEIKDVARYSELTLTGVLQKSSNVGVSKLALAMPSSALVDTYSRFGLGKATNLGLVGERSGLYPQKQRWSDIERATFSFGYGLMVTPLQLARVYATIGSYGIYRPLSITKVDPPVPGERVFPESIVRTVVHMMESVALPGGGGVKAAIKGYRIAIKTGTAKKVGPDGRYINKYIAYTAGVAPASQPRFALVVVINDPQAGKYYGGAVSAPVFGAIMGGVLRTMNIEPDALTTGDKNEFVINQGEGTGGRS
Protocol: Competition fluorescence polarisation assays were run by observing the fluorescence polarisation of a fluorescent “tracer” Bicycle molecule which competes against an unlabelled peptide for binding to the EcPBP3 target. 10 µL of protein (9.4 nM) was mixed with either 5 µL of peptide or 5 µL of buffer and then the assay was initiated by the addition of 10 µL of tracer (1 nM) (final volume 25 µL), in a black 384 low bind, low volume plate (Corning). The buffer was 10 mM HEPES (Sigma), 2% (v/v) glycerol (Sigma), 300 mM NaCl (Sigma), adjusted to pH 8. The plate was incubated for 1 h at 25 °C and then read in a PHERAstar FS (BMG) using with an “FP 485 520 520” optic module (excitation 485 nm, emission 520 nm). The gain was determined immediately prior to the read on a tracer-only well.
Dotmatics (Dotmatics) workflows performing the above calculations were used to process the data. Values quoted are the geometric means of at least 2 repeats.

EcPBP3 [2] = biological target: T1, EcPBP3; experiment: SPR binding assay on immobilised EcPBP3; conditions: 37 °C, kinetic fitting, NB = no binding at 2500 nM (Tables S-4, S-5) or 5000 nM (Table 1); for Kd: read-out: Kd (nM) by SPR (geomean)
Protocol: Surface plasmon resonance (SPR) assays were performed using EcPBP3 immobilized on CM5 sensor chips (GE Healthcare) via amine-coupling chemistry in assay buffer (10 mM HEPES pH 8.0, 200 mM NaCl, 0.05% (v/v) surfactant P20). The chip surface was activated by injection (10 μL min^–1) of 0.4 M EDC and 0.1 M NHS (in a 1:1 ratio) with a 7 min contact time. Protein was diluted to 25 μg mL^–1 in 10 mM MOPS (pH 7.0) and injected over the activated sensor chip surface to reach immobilization of 1500-2500 response units. Excess hydroxysuccinimidyl groups on the chip surface were deactivated by injection (10 μL min^–1) of 1 M ethanolamine hydrochloride pH 8.0 with a 7 min contact time. Reference flow cells were prepared as described, but without ligand (EcPBP3 protein).
Binding analysis runs were performed at 37 °C in running buffer (10 mM HEPES pH 8.0, 200 mM NaCl, 0.05% (w/v) Tween-20, 2% (v/v) DMSO). Test compounds (and control runs of buffer only) were injected in running buffer over the EcPBP3 chip and reference flow cell, at flow rate of 50 μL min^–1 for 150 s contact time and 2400 s dissociation time. Each injection was followed by a wash with 50% (v/v) DMSO. All compounds were tested in at least two independent biological replicates unless otherwise stated.
Raw sensorgrams data were solvent-corrected, reference-subtracted and blank-buffer-subtracted (double-referencing) before kinetic and affinity analysis to account for non-specific binding and injection artifacts. Equilibrium dissociation constant (Kd) values was determined using the Biacore™ Insight Evaluation Software (version 4.0.8 or version 5.0.17) using kinetic fitting. Kd values presented are the geometric mean of at least two biological replicates.

Question: Which Ki (EcPBP3 [1]) does the source give for CC(C)[C@@H]1NC(=O)[C@H](Cc2c[nH]c3ccccc23)NC(=O)[C@@H]2CCCN2C(=O)[C@@H]2CSCCC(=O)N3CN(CN(C3)C(=O)CCSC[C@H](NC(=O)[C@H](C)N)C(=O)N[C@@H](Cc3ccccc3)C(=O)N[C@@H](Cc3ccccc3)C(=O)N3CCC[C@H]3C(=O)N[C@@H](CCCCNC(=N)N)C(=O)N2)C(=O)CCSC[C@@H](C(=O)N[C@@H](C)C(N)=O)NC(=O)CNC(=O)[C@H](CCC(=O)O)NC1=O [Peptide 28] (HELM PEPTIDE1{A.C.F.F.P.[N=C(N)NCCCC[C@H](N[*:1])C(=O)[*:2]].C.P.W.V.E.G.C.A.[am]}|CHEM1{[O=C(CC[*:1])N1CN(C(=O)CC[*:2])CN(C(=O)CC[*:3])C1]}$PEPTIDE1,CHEM1,2:R3-1:R1|PEPTIDE1,CHEM1,7:R3-1:R2|PEPTIDE1,CHEM1,13:R3-1:R3$$$V2.0) here?
Answer: < 9 nM

Question: And the Kd (EcPBP3 [2])?
Answer: 1.12 nM

Question: How did the Ki (EcPBP3 [1]) turn out when CC(C)[C@@H]1NC(=O)[C@H](Cc2c[nH]c3ccccc23)NC(=O)[C@@H]2CCCN2C(=O)[C@@H]2CSCCC(=O)N3CN(CN(C3)C(=O)CCSC[C@H](NC(=O)[C@H](C)N)C(=O)N[C@@H](CO)C(=O)N[C@@H](Cc3ccccc3)C(=O)N3CCC[C@H]3C(=O)N[C@@H](CCCCN)C(=O)N2)C(=O)CCSC[C@@H](C(=O)N[C@@H](C)C(N)=O)NC(=O)CNC(=O)[C@H](C)NC1=O [Peptide 23] was run?
Answer: 9.08 nM

Question: What about the Kd (EcPBP3 [2]) of the same molecule?
Answer: 6.71 nM

Question: Which Ki (EcPBP3 [1]) does the source give for C[C@H](N)C(=O)N[C@H]1CSCCC(=O)N2CN3CN(C2)C(=O)CCSC[C@H](NC(=O)[C@H](CCCCN)NC(=O)[C@@H]2CCCN2C(=O)[C@H](Cc2ccccc2)NC(=O)[C@H](CO)NC1=O)C(=O)N1CCC[C@H]1C(=O)N[C@@H](Cc1c[nH]c2ccccc12)C(=O)N[C@@H](C)C(=O)N[C@@H](CCC(=O)O)C(=O)NCC(=O)N[C@H](C(=O)N[C@@H](C)C(N)=O)CSCCC3=O [Peptide 22] (HELM PEPTIDE1{A.C.S.F.P.K.C.P.W.A.E.G.C.A.[am]}|CHEM1{[O=C(CC[*:1])N1CN(C(=O)CC[*:2])CN(C(=O)CC[*:3])C1]}$PEPTIDE1,CHEM1,2:R3-1:R1|PEPTIDE1,CHEM1,7:R3-1:R2|PEPTIDE1,CHEM1,13:R3-1:R3$$$V2.0) here?
Answer: > 5000 nM

Question: And the Kd (EcPBP3 [2])?
Answer: 669 nM

Question: CC(C)[C@@H]1NC(=O)[C@H](Cc2c[nH]c3ccccc23)NC(=O)[C@@H]2CCCN2C(=O)[C@@H]2CSCCC(=O)N3CN(CN(C3)C(=O)CCSC[C@H](NC(=O)[C@H](C)N)C(=O)N[C@@H](CO)C(=O)N[C@@H](Cc3ccccc3)C(=O)N[C@@H](C)C(=O)N[C@@H](CCCCN)C(=O)N2)C(=O)CCSC[C@@H](C(=O)N[C@@H](C)C(N)=O)NC(=O)CNC(=O)[C@H](CCC(=O)O)NC1=O [Peptide 18] was tested. Which Ki (EcPBP3 [1]) did it give?
Answer: 76.9 nM

Question: What about the Kd (EcPBP3 [2]) of the same molecule?
Answer: 178 nM

Question: Which results are given for CC(C)[C@@H]1NC(=O)[C@H](C)NC(=O)[C@@H]2CCCN2C(=O)[C@@H]2CSCCC(=O)N3CN(CN(C3)C(=O)CCSC[C@H](NC(=O)[C@H](C)N)C(=O)N[C@@H](CO)C(=O)N[C@@H](Cc3ccccc3)C(=O)N3CCC[C@H]3C(=O)N[C@@H](CCCCN)C(=O)N2)C(=O)CCSC[C@@H](C(=O)N[C@@H](C)C(N)=O)NC(=O)CNC(=O)[C@H](CCC(=O)O)NC1=O [Peptide 21] (HELM PEPTIDE1{A.C.S.F.P.K.C.P.A.V.E.G.C.A.[am]}|CHEM1{[O=C(CC[*:1])N1CN(C(=O)CC[*:2])CN(C(=O)CC[*:3])C1]}$PEPTIDE1,CHEM1,2:R3-1:R1|PEPTIDE1,CHEM1,7:R3-1:R2|PEPTIDE1,CHEM1,13:R3-1:R3$$$V2.0)?
Answer: Ki (EcPBP3 [1]): > 5000 nM; Kd (EcPBP3 [2]): > 2500 nM

Question: Which Ki (EcPBP3 [1]) does the source give for CC(C)[C@@H]1NC(=O)[C@H](Cc2c[nH]c3ccccc23)NC(=O)[C@@H]2CCCN2C(=O)[C@@H]2CSCCC(=O)N3CN(CN(C3)C(=O)CCSC[C@H](NC(=O)[C@H](C)N)C(=O)N[C@@H](CO)C(=O)N[C@@H](Cc3ccccc3)C(=O)N3CCC[C@H]3C(=O)N[C@@H](C)C(=O)N2)C(=O)CCSC[C@@H](C(=O)N[C@@H](C)C(N)=O)NC(=O)CNC(=O)[C@H](CCC(=O)O)NC1=O [Peptide 19] here?
Answer: < 9 nM

Question: What about the Kd (EcPBP3 [2]) of the same molecule?
Answer: 12.4 nM

Question: How did the Ki (EcPBP3 [1]) turn out when CC(C)[C@@H]1NC(=O)[C@H](Cc2c[nH]c3ccccc23)NC(=O)[C@@H]2CCCN2C(=O)[C@@H]2CSCCC(=O)N3CN(CN(C3)C(=O)CCSC[C@H](NC(=O)[C@H](C)N)C(=O)N[C@@H](CO)C(=O)N[C@@H](Cc3ccccc3)C(=O)N3CCC[C@H]3C(=O)N[C@@H](CCCCNC(=N)N)C(=O)N2)C(=O)CCSC[C@@H](C(=O)N[C@@H](C)C(N)=O)NC(=O)CNC(=O)[C@H](CCC(=O)O)NC1=O [Peptide 25] was run?
Answer: < 9 nM

Question: And the “Kd (nM) by SPR (geomean)” value (EcPBP3 [2])?
Answer: no loss in binding or MIC

Question: What about the Kd (EcPBP3 [2]) of the same molecule?
Answer: 2.85 nM

Question: CC(C)[C@@H]1NC(=O)[C@H](Cc2c[nH]c3ccccc23)NC(=O)[C@@H]2CCCN2C(=O)[C@@H]2CSCCC(=O)N3CN(CN(C3)C(=O)CCSC[C@H](NC(=O)[C@H](C)N)C(=O)N[C@@H](C)C(=O)N[C@@H](Cc3ccccc3)C(=O)N3CCC[C@H]3C(=O)N[C@@H](CCCCN)C(=O)N2)C(=O)CCSC[C@@H](C(=O)N[C@@H](C)C(N)=O)NC(=O)CNC(=O)[C@H](CCC(=O)O)NC1=O [Peptide 16] (HELM PEPTIDE1{A.C.A.F.P.K.C.P.W.V.E.G.C.A.[am]}|CHEM1{[O=C(CC[*:1])N1CN(C(=O)CC[*:2])CN(C(=O)CC[*:3])C1]}$PEPTIDE1,CHEM1,2:R3-1:R1|PEPTIDE1,CHEM1,7:R3-1:R2|PEPTIDE1,CHEM1,13:R3-1:R3$$$V2.0) was tested. Which Ki (EcPBP3 [1]) did it give?
Answer: < 9 nM

Question: What about the Kd (EcPBP3 [2]) of the same molecule?
Answer: 6.44 nM

Question: Which Ki (EcPBP3 [1]) does the source give for CC(C)[C@@H]1NC(=O)[C@H](Cc2c[nH]c3ccccc23)NC(=O)[C@@H]2CCCN2C(=O)[C@@H]2CSCCC(=O)N3CN(CN(C3)C(=O)CCSC[C@@H](C(=O)N[C@@H](C)C(N)=O)NC(=O)[C@H](Cc3ccc(O)cc3)NC(=O)[C@H](CCC(=O)O)NC1=O)C(=O)CCSC[C@H](NC(=O)[C@H](C)N)C(=O)N[C@@H](CO)C(=O)N[C@@H](Cc1ccccc1)C(=O)N1CCC[C@H]1C(=O)N[C@@H](CCCCNC(=N)N)C(=O)N2 [Peptide 51] (HELM PEPTIDE1{A.C.S.F.P.[N=C(N)NCCCC[C@H](N[*:1])C(=O)[*:2]].C.P.W.V.E.Y.C.A.[am]}|CHEM1{[O=C(CC[*:1])N1CN(C(=O)CC[*:2])CN(C(=O)CC[*:3])C1]}$PEPTIDE1,CHEM1,2:R3-1:R1|PEPTIDE1,CHEM1,7:R3-1:R2|PEPTIDE1,CHEM1,13:R3-1:R3$$$V2.0) here?
Answer: < 9 nM

Question: What about the Kd (EcPBP3 [2]) of the same molecule?
Answer: 1.83 nM

Question: Which results are given for CC(C)C[C@@H]1NC(=O)[C@@H](NC(=O)[C@H](C)N)CSCCC(=O)N2CN3CN(C2)C(=O)CCSC[C@H](NC(=O)[C@H](CCCCNC(=N)N)NC(=O)[C@@H]2CCCN2C(=O)[C@H](Cc2ccccc2)NC1=O)C(=O)N1CCC[C@H]1C(=O)N[C@@H](Cc1c[nH]c2ccccc12)C(=O)N[C@@H](C(C)C)C(=O)N[C@@H](CCC(=O)O)C(=O)NCC(=O)N[C@H](C(=O)N[C@@H](C)C(N)=O)CSCCC3=O [Peptide 27] (HELM PEPTIDE1{A.C.L.F.P.[N=C(N)NCCCC[C@H](N[*:1])C(=O)[*:2]].C.P.W.V.E.G.C.A.[am]}|CHEM1{[O=C(CC[*:1])N1CN(C(=O)CC[*:2])CN(C(=O)CC[*:3])C1]}$PEPTIDE1,CHEM1,2:R3-1:R1|PEPTIDE1,CHEM1,7:R3-1:R2|PEPTIDE1,CHEM1,13:R3-1:R3$$$V2.0)?
Answer: Ki (EcPBP3 [1]): < 9 nM; Kd (EcPBP3 [2]): 3.36 nM

Question: With CC(C)[C@@H]1NC(=O)[C@H](Cc2c[nH]c3ccccc23)NC(=O)[C@@H]2CCCN2C(=O)[C@@H]2CSCCC(=O)N3CN(CN(C3)C(=O)CCSC[C@@H](C(=O)N[C@@H](C)C(N)=O)NC(=O)[C@H](C)NC(=O)[C@H](CCC(=O)O)NC1=O)C(=O)CCSC[C@H](NC(=O)[C@H](C)N)C(=O)N[C@@H](CO)C(=O)N[C@@H](Cc1ccccc1)C(=O)N1CCC[C@H]1C(=O)N[C@@H](CCCCN)C(=O)N2 [Peptide 24] as the molecule, how does the Ki (EcPBP3 [1]) read?
Answer: 25.5 nM

Question: What about the Kd (EcPBP3 [2]) of the same molecule?
Answer: 24.4 nM

Reference: article PMC12120022, “Discovery and chemical optimisation of a potent, Bi-cyclic antimicrobial inhibitor of Escherichia coli PBP3” (Communications Biology, 2025)
